Test results reported in patent US10450301B2, “Apoptosis signal-regulating kinase 1 inhibitors and methods of use thereof” (ENANTA PHARMACEUTICALS, INC., priority 2017, dated 2019).

target: ASK1 (Homo sapiens (Human), UniProt Q99683); experiment: HTRF KinEASE Assay (TR-FRET, STK3 peptide substrate), inhibition of ASK1; type: biochemical; details: 5 nM ASK1 kinase, 1 μM STK3 peptide substrate, 100 μM ATP, 3 hours; compound 0 to 10 μM
How it was run: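 TR-FRET HTRF KinEASE-STK format with an STK3 biotinylated peptide substrate. Signal tracks phosphorylation; IC50 from curve fitting.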

Chain of ASK1 (Q99683 whole entry): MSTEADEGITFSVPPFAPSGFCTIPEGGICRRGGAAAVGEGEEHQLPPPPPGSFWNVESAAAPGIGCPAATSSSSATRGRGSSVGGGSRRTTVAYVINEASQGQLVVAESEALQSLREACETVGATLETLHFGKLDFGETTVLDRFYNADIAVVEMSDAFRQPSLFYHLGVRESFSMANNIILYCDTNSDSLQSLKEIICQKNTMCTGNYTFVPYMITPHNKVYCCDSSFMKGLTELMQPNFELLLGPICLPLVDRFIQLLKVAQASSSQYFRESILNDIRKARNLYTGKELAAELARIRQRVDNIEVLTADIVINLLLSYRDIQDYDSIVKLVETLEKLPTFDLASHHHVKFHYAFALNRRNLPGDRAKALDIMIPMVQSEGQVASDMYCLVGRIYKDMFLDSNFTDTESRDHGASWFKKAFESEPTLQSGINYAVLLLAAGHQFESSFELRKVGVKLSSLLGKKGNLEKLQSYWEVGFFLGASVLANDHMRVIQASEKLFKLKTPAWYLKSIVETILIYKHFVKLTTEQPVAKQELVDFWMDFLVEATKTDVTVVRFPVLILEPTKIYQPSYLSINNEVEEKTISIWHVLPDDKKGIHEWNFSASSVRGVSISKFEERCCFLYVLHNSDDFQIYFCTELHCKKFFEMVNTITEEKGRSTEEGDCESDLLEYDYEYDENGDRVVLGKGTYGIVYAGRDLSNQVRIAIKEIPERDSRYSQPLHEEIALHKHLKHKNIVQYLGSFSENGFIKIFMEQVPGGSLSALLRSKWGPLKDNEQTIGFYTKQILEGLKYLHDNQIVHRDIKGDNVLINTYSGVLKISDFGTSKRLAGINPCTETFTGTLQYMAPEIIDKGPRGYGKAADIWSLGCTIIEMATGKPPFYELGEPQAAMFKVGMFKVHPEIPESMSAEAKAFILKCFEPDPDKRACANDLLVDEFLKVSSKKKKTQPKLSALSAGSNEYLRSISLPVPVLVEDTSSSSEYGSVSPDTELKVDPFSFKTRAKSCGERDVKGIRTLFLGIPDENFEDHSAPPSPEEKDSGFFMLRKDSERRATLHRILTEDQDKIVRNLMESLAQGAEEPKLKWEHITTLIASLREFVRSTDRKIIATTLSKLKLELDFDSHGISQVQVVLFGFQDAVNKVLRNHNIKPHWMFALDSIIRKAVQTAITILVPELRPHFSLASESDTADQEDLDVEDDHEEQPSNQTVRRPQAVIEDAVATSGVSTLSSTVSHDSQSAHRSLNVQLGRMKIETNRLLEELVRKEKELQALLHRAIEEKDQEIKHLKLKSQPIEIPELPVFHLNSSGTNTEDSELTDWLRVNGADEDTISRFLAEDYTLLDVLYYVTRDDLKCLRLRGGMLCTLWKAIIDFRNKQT

| SMILES | IC50 |
| --- | --- |
| CC(C)n1nnnc1-c1cccc(NC(=O)c2cc3c(cn2)CCN(S(=O)(=O)CC(F)(F)F)C3)n1 [Example 140] | 10 to 100 nM |
| CC(C)CS(=O)(=O)N1CCc2cnc(C(=O)Nc3cccc(-c4nnnn4C(C)C)n3)cc2C1 [Example 141] | 1 to 10 nM |
| C[C@H](CO)n1nnnc1-c1cccc(NC(=O)c2cc3c(cn2)CCN(C=O)C3)n1 [Example 142, (R)-6-formyl-N-(6-(1-(1-hydroxypropan-2-yl)-1H-tetrazol-5-yl)pyridin-2-yl)-5,6,7,8-tetrahydro-2,6-naphthyridine-3-carboxamide] | 1 to 10 nM |
| C[C@H](CO)n1nnnc1-c1cccc(NC(=O)c2cc3c(cn2)CCN(C(=O)OC(C)(C)C)C3)n1 [Example 143, tert-butyl (R)-7-((6-(1-(1-hydroxypropan-2-yl)-1H-tetrazol-5-yl)pyridin-2-yl)carbamoyl)-3,4-dihydro-2,6-naphthyridine-2(1H)-carboxylate] | 1 to 10 nM |
| C[C@H](CO)n1nnnc1-c1cccc(NC(=O)c2cc3c(cn2)CCN(C(=O)N2CCCC2)C3)n1 [Example 144, (R)—N-(6-(1-(1-hydroxypropan-2-yl)-1H-tetrazol-5-yl)pyridin-2-yl)-6-(pyrrolidine-1-carbonyl)-5,6,7,8-tetrahydro-2,6-naphthyridine-3-carboxamide] | 1 to 10 nM |
| CCOC(=O)N1CCc2cnc(C(=O)Nc3cccc(-c4nnnn4[C@H](C)CO)n3)cc2C1 [Example 145] | 1 to 10 nM |
| C[C@H](CO)n1nnnc1-c1cccc(NC(=O)c2cc3c(cn2)CCN(C(=O)C2CCCC2)C3)n1 [Example 146, (R)-6-(cyclopentanecarbonyl)-N-(6-(1-(1-hydroxypropan-2-yl)-1H-tetrazol-5-yl)pyridin-2-yl)-5,6,7,8-tetrahydro-2,6-naphthyridine-3-carboxamide] | 1 to 10 nM |
| CC(=O)OC[C@@H](C)n1nnnc1-c1cccc(NC(=O)c2cc3c(cn2)CCN(C(=O)OC(C)(C)C)C3)n1 [Example 147, tert-butyl (R)-7-((6-(1-(1-acetoxypropan-2-yl)-1H-tetrazol-5-yl)pyridin-2-yl)carbamoyl)-3,4-dihydro-2,6-naphthyridine-2(1H)-carboxylate] | 100 to 1000 nM |
| C[C@H](CO)n1nnnc1-c1cccc(NC(=O)c2cc3c(cn2)CCN(S(=O)(=O)C2CC2)C3)n1 [Example 148] | 1 to 10 nM |
| CC(C)S(=O)(=O)N1CCc2cnc(C(=O)Nc3cccc(-c4nnnn4[C@H](C)CO)n3)cc2C1 [Example 149] | 1 to 10 nM |
| C[C@H](CO)n1nnnc1-c1cccc(NC(=O)c2cc3c(cn2)CCN(S(=O)(=O)CCC(F)(F)F)C3)n1 [Example 150] | 1 to 10 nM |
| CC(C)CC(=O)N1CCc2cnc(C(=O)Nc3cccc(-c4nnnn4[C@H](C)CO)n3)cc2C1 [Example 151] | 1 to 10 nM |
| C[C@H](CO)n1nnnc1-c1cccc(NC(=O)c2cc3c(cn2)CCN(C(=O)C(C)(C)C)C3)n1 [Example 152] | 1 to 10 nM |
| CC(C)n1nnnc1-c1cccc(NC(=O)c2cc3c(cn2)CCN(C(=O)OC(C)(C)C)C3)n1 [Example 153, tert-butyl 7-((6-(1-isopropyl-1H-tetrazol-5-yl)pyridin-2-yl)carbamoyl)-3,4-dihydro-2,6-naphthyridine-2(1H)-carboxylate] | 10 to 100 nM |
| C[C@H](CO)n1nnnc1-c1cccc(NC(=O)c2cc3c(cn2)CCN(S(=O)(=O)N2CCCC2)C3)n1 [Example 154] | 1 to 10 nM |
| C[C@H](CO)n1nnnc1-c1cccc(NC(=O)c2cc3c(cn2)CCN(C(=O)C2CC2)C3)n1 [Example 155] | 1 to 10 nM |
| C[C@H](CO)n1nnnc1-c1cccc(NC(=O)c2cc3c(cn2)CCN(C(=O)OC2CCCC2)C3)n1 [Example 156] | 1 to 10 nM |
| C[C@H](CO)n1nnnc1-c1cccc(NC(=O)c2cc3c(cn2)CCN(C(=O)OC2CCC2)C3)n1 [Example 157] | 1 to 10 nM |
| COCCOC(=O)N1CCc2cnc(C(=O)Nc3cccc(-c4nnnn4[C@H](C)CO)n3)cc2C1 [Example 158] | 1 to 10 nM |

Other lines, results leading:

| IC50 | SMILES |
| --- | --- |
| 1 to 10 nM | C[C@H](CO)n1nnnc1-c1cccc(NC(=O)c2cc3c(cn2)CCN(C(=O)OCC(C)(C)C)C3)n1 [Example 159] |
| 1 to 10 nM | CCCOC(=O)N1CCc2cnc(C(=O)Nc3cccc(-c4nnnn4[C@H](C)CO)n3)cc2C1 [Example 160] |
| 1 to 10 nM | CC(C)CS(=O)(=O)N1CCc2cnc(C(=O)Nc3cccc(-c4nnnn4[C@H](C)CO)n3)cc2C1 [Example 161] |
| 1 to 10 nM | CC(C)OC(=O)N1CCc2cnc(C(=O)Nc3cccc(-c4nnnn4[C@H](C)CO)n3)cc2C1 [Example 162, isopropyl (R)-7-((6-(1-(1-hydroxypropan-2-yl)-1H-tetrazol-5-yl)pyridin-2-yl)carbamoyl)-3,4-dihydro-2,6-naphthyridine-2(1H)-carboxylate] |
| 1 to 10 nM | C[C@H](CO)n1nnnc1-c1cccc(NC(=O)c2cc3c(cn2)CCN(CC2CC2)C3)n1 [Example 163, (R)-6-(cyclopropylmethyl)-N-(6-(1-(1-hydroxypropan-2-yl)-1H-tetrazol-5-yl)pyridin-2-yl)-5,6,7,8-tetrahydro-2,6-naphthyridine-3-carboxamide] |
| 1 to 10 nM | CC(C)CN1CCc2cnc(C(=O)Nc3cccc(-c4nnnn4[C@H](C)CO)n3)cc2C1 [Example 164] |
| 1 to 10 nM | CCCN1CCc2cnc(C(=O)Nc3cccc(-c4nnnn4[C@H](C)CO)n3)cc2C1 [Example 165] |
| 1 to 10 nM | C[C@H](CO)n1nnnc1-c1cccc(NC(=O)c2cc3c(cn2)CCN(S(=O)(=O)N(C)C)C3)n1 [Example 166] |
| 1 to 10 nM | CCN(C)C(=O)N1CCc2cnc(C(=O)Nc3cccc(-c4nnnn4[C@H](C)CO)n3)cc2C1 [Example 167] |
| 1 to 10 nM | C[C@H](CO)n1nnnc1-c1cccc(NC(=O)c2cc3c(cn2)CCN(C(=O)N(C)C)C3)n1 [Example 168] |
| 1 to 10 nM | C[C@H](CO)n1nnnc1-c1cccc(NC(=O)c2cc3c(cn2)CCN(C(=O)NC2CCCC2)C3)n1 [Example 169] |
| 1 to 10 nM | CCNC(=O)N1CCc2cnc(C(=O)Nc3cccc(-c4nnnn4[C@H](C)CO)n3)cc2C1 [Example 170] |
| 1 to 10 nM | C[C@H](CO)n1nnnc1-c1cccc(NC(=O)c2cc3c(cn2)CCN(Cc2ccccn2)C3)n1 [Example 171] |
| 1 to 10 nM | CC(C)n1nnnc1-c1cccc(NC(=O)c2cc3c(cn2)CCN(S(=O)(=O)CCC(F)(F)F)C3)n1 [Example 172] |
| 1 to 10 nM | CC(C)n1nnnc1-c1cccc(NC(=O)c2cc3c(cn2)CCN(C(=O)N2CCCC2)C3)n1 [Example 173] |
| 100 to 1000 nM | COc1cc2c(cc1C(=O)Nc1cccc(-c3nnnn3C(C)C)n1)C(=O)N(C(C)C)C2 [Example 174] |
| 10 to 100 nM | COc1cc2c(cc1C(=O)Nc1cccc(-c3nncn3C(C)C)n1)C(=O)N(C(C)C)C2 [Example 175, 2-isopropyl-N-(6-(4-isopropyl-4H-1,2,4-triazol-3-yl)pyridin-2-yl)-6-methoxy-3-oxoisoindoline-5-carboxamide] |
| > 1000 nM | CC(C)N1Cc2cc(F)c(C(=O)Nc3cccc(-c4nnnn4C(C)C)n3)cc2C1=O [Example 176] |
| > 1000 nM | CC(C)N1Cc2cc(F)c(C(=O)Nc3cccc(-c4nncn4C(C)C)n3)cc2C1=O [Example 177, 6-fluoro-2-isopropyl-N-(6-(4-isopropyl-4H-1,2,4-triazol-3-yl)pyridin-2-yl)-3-oxoisoindoline-5-carboxamide] |
| 1 to 10 nM | C[C@H](CO)n1nnnc1-c1cccc(NC(=O)c2cc3c(cn2)CN(C(=O)OCc2ccccc2)C3)n1 [Example 178] |
